{
  "source": "patent US20230089867A1",
  "about": "“CYCLIC PENTAMER COMPOUNDS AS PROPROTEIN CONVERTASE SUBTILISIN/KEXIN TYPE 9 (PCSK9) INHIBITORS FOR THE TREATMENT OF METABOLIC DISORDER” (Novartis AG, priority 2018, published 2023)",
  "molecular_target": "human PCSK9 (Homo sapiens, UniProt Q8NBP7)",
  "sequence (Q8NBP7 153-692)": "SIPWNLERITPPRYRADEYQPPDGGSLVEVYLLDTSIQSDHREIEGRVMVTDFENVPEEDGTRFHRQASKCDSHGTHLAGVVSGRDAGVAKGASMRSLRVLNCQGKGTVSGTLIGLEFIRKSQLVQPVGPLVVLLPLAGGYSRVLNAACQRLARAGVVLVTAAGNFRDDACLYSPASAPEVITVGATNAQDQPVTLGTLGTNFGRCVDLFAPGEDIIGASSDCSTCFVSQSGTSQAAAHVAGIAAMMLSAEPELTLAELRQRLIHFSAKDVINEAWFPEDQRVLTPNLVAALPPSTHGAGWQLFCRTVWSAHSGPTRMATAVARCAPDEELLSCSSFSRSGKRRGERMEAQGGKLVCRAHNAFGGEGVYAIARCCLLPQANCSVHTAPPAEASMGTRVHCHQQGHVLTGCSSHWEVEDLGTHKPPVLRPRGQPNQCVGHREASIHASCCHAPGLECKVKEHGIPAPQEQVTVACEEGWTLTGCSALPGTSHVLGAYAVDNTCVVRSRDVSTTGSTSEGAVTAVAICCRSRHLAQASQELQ",
  "sequence (Q8NBP7 31-152 partner limits assumed)": "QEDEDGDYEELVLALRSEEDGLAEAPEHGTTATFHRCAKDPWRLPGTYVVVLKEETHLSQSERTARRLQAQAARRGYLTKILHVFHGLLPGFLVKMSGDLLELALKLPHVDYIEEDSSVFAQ",
  "assay": "PCSK9 ligand binding TR-FRET assay (interference with binding of human PCSK9 to human LDLR)",
  "settings": "for Max % inhibition: PCSK9 FRET assay, efficacy (Amax), 100% = 1 uM unlabeled human PCSK9, 0% = DMSO; for IC50: TR-FRET, human PCSK9 Alexa Fluor 647 / human LDLR extracellular domain-Europium Kryptate, read-out: PCSK9 FRET Assay IC50",
  "description": "The PCSK9 binding of the compounds of the disclosure were measured using a time resolved fluorescence resonance energy transfer (TR-FRET) assay. This time resolved fluorescence resonance energy transfer (TR-FRET) assay measures the ability of a compound of the present disclosure to interfere with the binding of human PCSK9 to human LDLR, providing measures of both potency (IC50) and efficacy (Amax).\nThese solutions were pipetted into columns 1 and 11 of the compound plate. Threefold serial dilutions were generated in columns 2-10 and 12-20 of the compound plate by transferring 10 uL into 20 uL of DMSO. Columns 21 and 22 of the compound plate were negative controls containing DMSO alone.\nAn intermediate plate was generated in a Greiner V bottom plate by transferring 8 uL from each well of the master plate into a corresponding well containing 92 uL of assay buffer and mixing thoroughly.\nA Proxi plate-low volume assay plate was used for the assay. […] For the positive control wells in columns 23 and 24 of the plate, 5 uL of unlabeled human PCSK9 was added at 4 uM in assay buffer containing 8% DMSO. Following a 30 minute incubation, 5 uL of 4 nM Human LDLR extracellular domain-Europium Kryptate was added and the mixture was incubated for an additional 2 hours.\nThe FRET ratio (FRET/Europium) was used for calculations.\nData is expressed as percent inhibition: (value−0%)/(100%−0%).",
  "data": [
    {"smiles": "COC[C@@H]1NC(=O)[C@H](CCN2CCOCC2)N(Cc2ccc(Cl)cc2Oc2ccc(-c3cnc(CN(C)C)n3C)cc2)C(=O)C[C@@H](Cc2ccccc2)C(=O)N(C)[C@@H](C)[C@H](C)NC(=O)C[C@H](Cc2ccc(Cl)cc2)N(C)C1=O", "note": "[Compound 94, (2S,5S,8S,12S,13S,16R)-16-benzyl-1-(4-chloro-2-(4-(2-((dimethylamino)methyl)-1-methyl-1H-imidazol-5-yl)phenoxy)benzyl)-8-(4-chlorobenzyl)-5-(methoxymethyl)-7,12,13,14-tetramethyl-2-(2-morpholinoethyl)-1,4,7,11,14-pentaazacyclooctadecane-3,6,10,15,18-pentaone]", "values": [
      {"measurement": "Max % inhibition", "result": 104.90, "unit": "%"},
      {"measurement": "IC50", "result": 2.4, "unit": "nM"}
    ]},
    {"smiles": "C[C@H]1CNC(=O)C[C@H](Cc2ccc(Cl)cc2)N(C)C(=O)[C@H](CO)NC(=O)[C@H](C)N(Cc2ccccc2Oc2ccc(-c3cnc(CN(C)C)n3C)cc2)C(=O)CCC(=O)N1C", "note": "[Compound 66, (2S,5S,8S,13S)-8-(4-chlorobenzyl)-1-(2-(4-(2-((dimethylamino)methyl)-1-methyl-1H-imidazol-5-yl)phenoxy)benzyl)-5-(hydroxymethyl)-2,7,13,14-tetramethyl-1,4,7,11,14-pentaazacyclooctadecane-3,6,10,15,18-pentaone]", "values": [
      {"measurement": "Max % inhibition", "result": 91.88, "unit": "%"},
      {"measurement": "IC50", "result": 77.2, "unit": "nM"}
    ]},
    {"smiles": "COC[C@@H]1NC(=O)[C@H](C)N(Cc2ccc(Cl)cc2Oc2ccc(-c3cnc(CN(C)C)n3C)cc2)C(=O)CCC(=O)N(C)CCNC(=O)C[C@H](Cc2ccc(Cl)cc2)N(C)C1=O", "note": "[Compound 141, (2S,5S,8S)-1-(4-chloro-2-(4-(2-((dimethylamino)methyl)-1-methyl-1H-imidazol-5-yl)phenoxy)benzyl)-8-(4-chlorobenzyl)-5-(methoxymethyl)-2,7,14-trimethyl-1,4,7,11,14-pentaazacyclooctadecane-3,6,10,15,18-pentaone]", "values": [
      {"measurement": "Max % inhibition", "result": 102.37, "unit": "%"},
      {"measurement": "IC50", "result": 882, "unit": "nM"}
    ]},
    {"smiles": "COC[C@@H]1NC(=O)[C@H](C)N(Cc2ccc(Cl)cc2Oc2ccc(-c3cnc(CN4CC[C@@H](F)C4)n3C)cc2)C(=O)C[C@@H](Cc2ccccc2)C(=O)N(C)[C@@H](C)CNC(=O)C[C@H](Cc2ccc(Cl)cc2)N(C)C1=O", "note": "[Compound 60, (2S,5S,8S,13S,16R)-16-benzyl-1-(4-chloro-2-(4-(2-(((R)-3-fluoropyrrolidin-1-yl)methyl)-1-methyl-1H-imidazol-5-yl)phenoxy)benzyl)-8-(4-chlorobenzyl)-5-(methoxymethyl)-2,7,13,14-tetramethyl-1,4,7,11,14-pentaazacyclooctadecane-3,6,10,15,18-pentaone]", "values": [
      {"measurement": "Max % inhibition", "result": 82.23, "unit": "%"},
      {"measurement": "IC50", "result": 2.9, "unit": "nM"}
    ]},
    {"smiles": "COC[C@@H]1NC(=O)[C@H](C)N(Cc2ccc(Cl)cc2Oc2ccc(-c3cnc(CN(C)C)n3C)cc2)C(=O)C[C@@H](C2CC2)C(=O)N(C)[C@@H](C)CNC(=O)C[C@H](Cc2ccc(Cl)cc2)N(C)C1=O", "note": "[Compound 215, (2S,5S,8S,13S)-1-(4-chloro-2-(4-(2-((dimethylamino)methyl)-1-methyl-1H-imidazol-5-yl)phenoxy)benzyl)-8-(4-chlorobenzyl)-16-cyclopropyl-5-(methoxymethyl)-2,7,13,14-tetramethyl-1,4,7,11,14-pentaazacyclooctadecane-3,6,10,15,18-pentaone]", "values": [
      {"measurement": "Max % inhibition", "result": 95.08, "unit": "%"},
      {"measurement": "IC50", "result": 11, "unit": "nM"}
    ]},
    {"smiles": "COC[C@@H]1NC(=O)[C@H](C)N(Cc2ccc(Cl)cc2Oc2ccc(-c3cnc(CN4CCCC4)n3C)cc2)C(=O)C[C@@H](Cc2ccccc2)C(=O)N(C)[C@@H](CCCCNC(C)=O)CNC(=O)C[C@H](Cc2ccc(Cl)cc2)N(C)C1=O.O=C(O)C(F)(F)F", "note": "[Compound 217, N-(4-((2S,5S,8S,13S,16R)-16-benzyl-1-(4-chloro-2-(4-(1-methyl-2-(pyrrolidin-1-ylmethyl)-1H-imidazol-5-yl)phenoxy)benzyl)-8-(4-chlorobenzyl)-5-(methoxymethyl)-2,7,14-trimethyl-3,6,10,15,18-pentaoxo-1,4,7,11,14-pentaazacyclooctadecan-13-yl)butyl)acetamide trifluoroacetate]", "values": [
      {"measurement": "Max % inhibition", "result": 95.74, "unit": "%"},
      {"measurement": "IC50", "result": 0.7, "unit": "nM"}
    ]},
    {"smiles": "COC[C@@H]1NC(=O)[C@H](C)N(Cc2c(OC)cccc2Oc2ccc(-c3cnc(CN(C)C)n3C)cc2)C(=O)C[C@@H](Cc2ccccc2)C(=O)N(C)[C@@H](C)CNC(=O)C[C@H](Cc2ccc(Cl)cc2)N(C)C1=O", "note": "[Compound 154, (2S,5S,8S,13S,16R)-16-benzyl-8-(4-chlorobenzyl)-1-(2-(4-(2-((dimethylamino)methyl)-1-methyl-1H-imidazol-5-yl)phenoxy)-6-methoxybenzyl)-5-(methoxymethyl)-2,7,13,14-tetramethyl-1,4,7,11,14-pentaazacyclooctadecane-3,6,10,15,18-pentaone]", "values": [
      {"measurement": "Max % inhibition", "result": 80.05, "unit": "%"},
      {"measurement": "IC50", "result": 5.1, "unit": "nM"}
    ]},
    {"smiles": "COC[C@@H]1NC(=O)[C@H](C)N(Cc2ccc(Cl)cc2Oc2ccc(-c3cnc([C@@H](C)N(C)C)n3C)cc2)C(=O)C[C@@H](Cc2ccccc2)C(=O)N(C)[C@@H](C)[C@H](C)NC(=O)C[C@H](Cc2ccc(Cl)cc2)N(C)C1=O", "note": "[Compound 261, (2S,5S,8S,12S,13S,16R)-16-benzyl-1-(4-chloro-2-(4-(2-((R)-1-(dimethylamino)ethyl)-1-methyl-1H-imidazol-5-yl)phenoxy)benzyl)-8-(4-chlorobenzyl)-5-(methoxymethyl)-2,7,12,13,14-pentamethyl-1,4,7,11,14-pentaazacyclooctadecane-3,6,10,15,18-pentaone]", "values": [
      {"measurement": "Max % inhibition", "result": 111.41, "unit": "%"},
      {"measurement": "IC50", "result": 2, "unit": "nM"}
    ]},
    {"smiles": "COC[C@@H]1NC(=O)[C@H](C)N(Cc2ccc(Cl)cc2Oc2ccc(-c3cnc(CN(C)C)n3C)cc2)C(=O)C[C@@H](Cc2ccccc2)C(=O)N(C)C2(CC2)CNC(=O)C[C@H](Cc2ccc(Cl)cc2)N(C)C1=O", "note": "[Compound 144, (6R,10S,13S,16S)-6-benzyl-9-(4-chloro-2-(4-(2-((dimethylamino)methyl)-1-methyl-1H-imidazol-5-yl)phenoxy)benzyl)-16-(4-chlorobenzyl)-13-(methoxymethyl)-4,10,15-trimethyl-4,9,12,15,19-pentaazaspiro[2.17]icosane-5,8,11,14,18-pentaone]", "values": [
      {"measurement": "Max % inhibition", "result": 100.34, "unit": "%"},
      {"measurement": "IC50", "result": 7, "unit": "nM"}
    ]},
    {"smiles": "COC[C@@H]1NC(=O)[C@H](C)N(Cc2c[nH]c(=O)cc2Oc2ccc(-c3cnc(CN(C)C)n3C)cc2)C(=O)C[C@@H](Cc2ccccc2)C(=O)N(C)[C@@H](C)CNC(=O)C[C@H](Cc2ccc(Cl)cc2)N(C)C1=O", "note": "[Compound 168, (2S,5S,8S,13S,16R)-16-benzyl-8-(4-chlorobenzyl)-1-((4-(4-(2-((dimethylamino)methyl)-1-methyl-1H-imidazol-5-yl)phenoxy)-6-oxo-1,6-dihydropyridin-3-yl)methyl)-5-(methoxymethyl)-2,7,13,14-tetramethyl-1,4,7,11,14-pentaazacyclooctadecane-3,6,10,15,18-pentaone]", "values": [
      {"measurement": "Max % inhibition", "result": 85.66, "unit": "%"},
      {"measurement": "IC50", "result": 67.7, "unit": "nM"}
    ]},
    {"smiles": "COC[C@@H]1NC(=O)[C@H](CCO)N(Cc2ccc(Cl)cc2Oc2ccc(-c3cnc(CN(C)C)n3C)cc2)C(=O)C[C@@H](Cc2ccccc2)C(=O)N(C)[C@@H](C)CNC(=O)C[C@H](Cc2ccc(Cl)cc2)N(C)C1=O", "note": "[Compound 87, (2S,5S,8S,13S,16R)-16-benzyl-1-(4-chloro-2-(4-(2-((dimethylamino)methyl)-1-methyl-1H-imidazol-5-yl)phenoxy)benzyl)-8-(4-chlorobenzyl)-2-(2-hydroxyethyl)-5-(methoxymethyl)-7,13,14-trimethyl-1,4,7,11,14-pentaazacyclooctadecane-3,6,10,15,18-pentaone]", "values": [
      {"measurement": "Max % inhibition", "result": 87.74, "unit": "%"},
      {"measurement": "IC50", "result": 497, "unit": "nM"}
    ]},
    {"smiles": "C[C@H]1CNC(=O)C[C@H](Cc2ccc(Cl)cc2)N(C)C(=O)[C@H](CO)NC(=O)[C@H](C)N(Cc2ccc(Cl)cc2Oc2ccc(-c3cnc(CN(C)C)n3C)cc2)C(=O)C[C@@H](Cc2ccccc2)C(=O)N1C", "note": "[Compound 142, (2S,5S,8S,13S,16R)-16-benzyl-1-(4-chloro-2-(4-(2-((dimethylamino)methyl)-1-methyl-1H-imidazol-5-yl)phenoxy)benzyl)-8-(4-chlorobenzyl)-5-(hydroxymethyl)-2,7,13,14-tetramethyl-1,4,7,11,14-pentaazacyclooctadecane-3,6,10,15,18-pentaone]", "values": [
      {"measurement": "Max % inhibition", "result": 100.91, "unit": "%"},
      {"measurement": "IC50", "result": 1.2, "unit": "nM"}
    ]},
    {"smiles": "COC[C@@H]1NC(=O)[C@H](C)N(Cc2ccc(Oc3ccc(-c4cnc(CN(C)C)n4C)cc3)cc2F)C(=O)C[C@@H](Cc2ccccc2)C(=O)N(C)C2CCCCC2NC(=O)C[C@H](Cc2ccc(Cl)cc2)N(C)C1=O", "note": "(stereo in doubt) [Compound 15, (4S,7S,10S,14R,16aS,20aS)-14-benzyl-4-(4-chlorobenzyl)-11-(4-(4-(2-((dimethylamino)methyl)-1-methyl-1H-imidazol-5-yl)phenoxy)-2-fluorobenzyl)-7-(methoxymethyl)-5,10,16-trimethylhexadecahydrobenzo[l][1,4,7,11,14]pentaazacyclooctadecine-2,6,9,12,15(3H)-pentaone]", "values": [
      {"measurement": "Max % inhibition", "result": 48.77, "unit": "%"},
      {"measurement": "IC50", "result": 331, "unit": "nM"}
    ]}
  ]
}
